In US6737383B1, “Herbicidal oxadiazolidines” (priority 1999, dated 2004):

What was measured:
rape = test: Test B pre/postemergence rape; format: in vivo, Brassica napus
Procedure, shortened: (§1)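 Herbicidal effect was estimated by eye on a ten-point control scale after plants spent twelve to sixteen days in a greenhouse following soil or foliar treatment. Foliar sprays targeted plants at one to four leaves; all doses were formulated in a non-phytotoxic solvent with surfactant.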

pigweed = test: Test B pre/postemergence pigweed; format: in vivo, Amaranthus retroflexus
Procedure, shortened: as §1

surinam grass = test: Test B pre/postemergence surinam grass; format: in vivo, Brachiaria decumbens
Procedure, shortened: as §1

duck salad = test: Test B flood test duck salad; format: in vivo, Heteranthera limosa; conditions: flood test species
Procedure, shortened: (§2)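 Each value is a visual injury score relative to controls, with 10 meaning complete control and 0 no effect. Evaluation took place twelve to sixteen days after the 2-leaf-stage plants were treated and kept in the greenhouse.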

cocklebur = test: Test B pre/postemergence cocklebur; format: in vivo, Xanthium strumarium
Procedure, shortened: as §1

crabgrass = test: Test B pre/postemergence crabgrass; format: in vivo, Digitaria sanguinalis
Procedure, shortened: as §1

corn = test: Test B pre/postemergence corn; format: in vivo, Zea mays
Procedure, shortened: as §1

giant foxtail = test: Test B pre/postemergence giant foxtail; format: in vivo, Setaria faberii
Procedure, shortened: as §1

sugar beet = test: Test B pre/postemergence sugar beet; format: in vivo, Beta vulgaris
Procedure, shortened: as §1

wild oat = test: Test B pre/postemergence wild oat; format: in vivo, Avena fatua
Procedure, shortened: as §1

purple nutsedge = test: Test B pre/postemergence purple nutsedge; format: in vivo, Cyperus rotundus
Procedure, shortened: as §1

soybean = test: Test B pre/postemergence soybean; format: in vivo, Glycine max
Procedure, shortened: as §1

blackgrass = test: Test B pre/postemergence blackgrass; format: in vivo, Alopecurus myosuroides
Procedure, shortened: as §1

wheat = test: Test B pre/postemergence wheat; format: in vivo, Triticum aestivum
Procedure, shortened: as §1

smallflower flatsedge = test: Test B flood test smallflower flatsedge; format: in vivo, Cyperus difformis; conditions: flood test species
Procedure, shortened: as §2

rice = test: Test B flood test rice; format: in vivo, Oryza sativa; conditions: flood test species
Procedure, shortened: as §2

morningglory = test: Test B pre/postemergence morningglory; format: in vivo, Ipomoea hederacea
Procedure, shortened: as §1

bedstraw = test: Test B pre/postemergence bedstraw; format: in vivo, Galium aparine; conditions: Postemergence
Procedure, shortened: as §1

bamyardgrass = test: Test B flood test barnyardgrass; format: in vivo, Echinochloa crus-galli; conditions: flood test species
Procedure, shortened: as §2

velvetleaf = test: Test B pre/postemergence velvetleaf; format: in vivo, Abutilon theophrasti
Procedure, shortened: as §1

[1] = Postemergence, Rate 125 g/ha, scale 0 to 10, 0 is no effect, 10 is complete control
[2] = Postemergence, Rate 500 g/ha, scale 0 to 10, 0 is no effect, 10 is complete control
[3] = Preemergence, Rate 62 g/ha, scale of 0 to 10 where 0 is no effect and 10 is complete control
[4] = Preemergence, Rate 125 g/ha, scale 0 to 10, 0 is no effect, 10 is complete control
[5] = Preemergence, Rate 250 g/ha, scale 0 to 10, 0 is no effect, 10 is complete control
[6] = Preemergence, Rate 500 g/ha, scale 0 to 10, 0 is no effect, 10 is complete control
[7] = Rate 62 g/ha, Postemergence, scale 0 to 10 (0 no effect, 10 complete control)
[8] = Rate 62 g/ha, Pre-emergence, visual evaluation after twelve to sixteen days
[9] = Rate 125 g/ha, under heading Pre-emergence, visual evaluation after twelve to sixteen days
[10] = Rate 500 g/ha, Pre-emergence, scale 0 to 10 (0 no effect, 10 complete control)
[11] = Postemergence, Rate 250 g/ha, scale 0 to 10

CC(C)C(=O)Cn1c(=O)on(C(=O)N(c2ccccc2)C(C)C)c1=O [Compound 485]
Rape plant response rating (rape; [1]): 0 | Plant response rating, Rape (rape; [2]): 0 | Plant response rating, Rape (rape; [3]): 0 | Rape plant response rating (rape; [4]): 0 | Rape plant response rating (rape; [5]): 0 | Rape plant response rating (rape; [6]): 2 | Rape plant response rating (rape; [7]): 0 | Redroot pigweed plant response rating (pigweed; [1]): 0 | Plant response rating, Redroot pigweed (pigweed; [2]): 2 | Plant response rating, Redroot pigweed (pigweed; [3]): 1 | Redroot pigweed plant response rating (pigweed; [4]): 6 | Redroot pigweed plant response rating (pigweed; [6]): 9 | Redroot pigweed plant response rating (pigweed; [7]): 0 | B. signalgrass plant response rating (surinam grass; [1]): 0 | B. signalgrass plant response rating (surinam grass; Postemergence, Rate 250 g/ha, scale 0 to 10, 0 no effect, 10 complete control): 4 | Plant response rating, B. signalgrass (surinam grass; [2]): 5 | Plant response rating, B. signalgrass (surinam grass; [3]): 3 | B. signalgrass plant response rating (surinam grass; [4]): 5 | B. signalgrass plant response rating (surinam grass; [5]): 8 | B. signalgrass plant response rating (surinam grass; [6]): 8 | B. signalgrass plant response rating (surinam grass; [7]): 0 | Plant response rating, Ducksalad (0 to 10 scale, 0 is no effect, 10 is complete control) (duck salad; [8]): 0 | Ducksalad plant response rating (0 to 10 scale, 0 is no effect, 10 is complete control) (duck salad; [9]): 0 | Ducksalad plant response rating (duck salad; [10]): 0 | Cocklebur plant response rating (cocklebur; [1]): 0 | Cocklebur plant response rating (cocklebur; [11]): 0 | Plant response rating, Cocklebur (cocklebur; [2]): 0 | Plant response rating, Cocklebur (cocklebur; [3]): 0 | Cocklebur plant response rating (cocklebur; [4]): 0 | Cocklebur plant response rating (cocklebur; [5]): 0 | Cocklebur plant response rating (cocklebur; [6]): 0 | Cocklebur plant response rating (cocklebur; [7]): 0 | Crabgrass plant response rating (crabgrass; [1]): 6 | Crabgrass plant response rating (crabgrass; [11]): 7 | Plant response rating, Crabgrass (crabgrass; [2]): 8 | Plant response rating, Crabgrass (crabgrass; [3]): 6 | Crabgrass plant response rating (crabgrass; [4]): 7 | Crabgrass plant response rating (crabgrass; [5]): 10 | Crabgrass plant response rating (crabgrass; [6]): 10 | Crabgrass plant response rating (crabgrass; [7]): 3 | Corn plant response rating (corn; [1]): 0 | Corn plant response rating (corn; [11]): 0 | Plant response rating, Corn (corn; [2]): 0 | Plant response rating, Corn (corn; [3]): 0 | Corn plant response rating (corn; [4]): 0 | Corn plant response rating (corn; [5]): 0 | Corn plant response rating (corn; [6]): 7 | Corn plant response rating (corn; [7]): 0 | Giant foxtail plant response rating (giant foxtail; [1]): 7 | Plant response rating, Giant foxtail (giant foxtail; [2]): 8 | Plant response rating, Giant foxtail (giant foxtail; [3]): 7 | Giant foxtail plant response rating (giant foxtail; [4]): 8 | Giant foxtail plant response rating (giant foxtail; [5]): 10 | Giant foxtail plant response rating (giant foxtail; [6]): 10 | Giant foxtail plant response rating (giant foxtail; [7]): 5 | Sugarbeets plant response rating (sugar beet; [1]): 0 | Plant response rating, Sugarbeets (sugar beet; [2]): 0 | Plant response rating, Sugarbeets (sugar beet; [3]): 0 | Sugarbeets plant response rating (sugar beet; [4]): 0 | Sugarbeets plant response rating (sugar beet; [5]): 0 | Sugarbeets plant response rating (sugar beet; [6]): 2 | Sugarbeets plant response rating (sugar beet; [7]): 0 | Wild oats plant response rating (wild oat; [1]): 0 | Plant response rating, Wild oats (wild oat; [2]): 4 | Plant response rating, Wild oats (wild oat; [3]): 2 | Wild oats plant response rating (wild oat; [4]): 5 | Wild oats plant response rating (wild oat; [5]): 6 | Wild oats plant response rating (wild oat; [6]): 8 | Wild oats plant response rating (wild oat; [7]): 0 | Nutsedge plant response rating (purple nutsedge; [1]): 0 | Plant response rating, Nutsedge (purple nutsedge; [2]): 0 | Plant response rating, Nutsedge (purple nutsedge; [3]): 0 | Nutsedge plant response rating (purple nutsedge; [4]): 0 | Nutsedge plant response rating (purple nutsedge; [5]): 0 | Nutsedge plant response rating (purple nutsedge; [6]): 0 | Nutsedge plant response rating (purple nutsedge; [7]): 0 | Soybean plant response rating (soybean; [1]): 4 | Plant response rating, Soybean (soybean; [2]): 5 | Plant response rating, Soybean (soybean; [3]): 0 | Soybean plant response rating (soybean; [4]): 0 | Soybean plant response rating (soybean; [5]): 0 | Soybean plant response rating (soybean; [6]): 0 | Soybean plant response rating (soybean; [7]): 2 | Blackgrass plant response rating (blackgrass; [1]): 7 | Blackgrass plant response rating (blackgrass; [11]): 7 | Plant response rating, Blackgrass (blackgrass; [2]): 8 | Plant response rating, Blackgrass (blackgrass; [3]): 4 | Blackgrass plant response rating (blackgrass; [4]): 8 | Blackgrass plant response rating (blackgrass; [5]): 8 | Blackgrass plant response rating (blackgrass; [6]): 9 | Blackgrass plant response rating (blackgrass; [7]): 3 | Wheat plant response rating (wheat; [1]): 0 | Plant response rating, Wheat (wheat; [2]): 5 | Plant response rating, Wheat (wheat; [3]): 0 | Wheat plant response rating (wheat; [4]): 2 | Wheat plant response rating (wheat; [5]): 3 | Wheat plant response rating (wheat; [6]): 5 | Wheat plant response rating (wheat; [7]): 0 | Plant response rating, S. Flatsedge (0 to 10 scale, 0 is no effect, 10 is complete control) (smallflower flatsedge; [8]): 0 | S. Flatsedge plant response rating (0 to 10 scale, 0 is no effect, 10 is complete control) (smallflower flatsedge; [9]): 0 | S. Flatsedge plant response rating (smallflower flatsedge; [10]): 0 | Plant response rating, Rice (0 to 10 scale, 0 is no effect, 10 is complete control) (rice; [8]): 0 | Rice plant response rating (0 to 10 scale, 0 is no effect, 10 is complete control) (rice; [9]): 0 | Rice plant response rating (rice; [10]): 0 | Morningglory plant response rating (morningglory; [1]): 10 | Plant response rating, Morningglory (morningglory; [2]): 10 | Plant response rating, Morningglory (morningglory; [3]): 0 | Morningglory plant response rating (morningglory; [4]): 0 | Morningglory plant response rating (morningglory; [5]): 0 | Morningglory plant response rating (morningglory; [6]): 4 | Morningglory plant response rating (morningglory; [7]): 8 | Bedstraw plant response rating (bedstraw; Rate 125 g/ha, scale 0 to 10, 0 is no effect, 10 is complete control): 0 | Bedstraw plant response rating (bedstraw; Rate 250 g/ha, scale 0 to 10): 2 | Plant response rating, Bedstraw (bedstraw; Rate 500 g/ha, scale 0 to 10, 0 is no effect, 10 is complete control): 6 | Bedstraw plant response rating (bedstraw; Rate 62 g/ha, scale 0 to 10 (0 no effect, 10 complete control)): 0 | Plant response rating, Barnyardgrass (0 to 10 scale, 0 is no effect, 10 is complete control) (bamyardgrass; [8]): 0 | Barnyardgrass plant response rating (0 to 10 scale, 0 is no effect, 10 is complete control) (bamyardgrass; [9]): 0 | Barnyardgrass plant response rating (bamyardgrass; [10]): 0 | Velvetleaf plant response rating (velvetleaf; [1]): 0 | Plant response rating, Velvetleaf (velvetleaf; [2]): 4 | Plant response rating, Velvetleaf (velvetleaf; [3]): 0 | Velvetleaf plant response rating (velvetleaf; [4]): 0 | Velvetleaf plant response rating (velvetleaf; [5]): 0 | Velvetleaf plant response rating (velvetleaf; [6]): 3 | Velvetleaf plant response rating (velvetleaf; [7]): 0
